Laboratory results reported in paper PMC7321218, “Synthetic (E)-3-Phenyl-5-(phenylamino)-2-styryl-1,3,4-thiadiazol-3-ium Chloride Derivatives as Promising Chemotherapy Agents on Cell Lines Infected with HTLV-1” (Molecules, 2020).
Entries after “also recorded” stand apart in the source; their conditions may differ.

Tests used:
[1] = target: T1, human serum albumin (HSA) (Homo sapiens, UniProt P02768); test: Steady-state fluorescence quenching of HSA; assay type: binding; details: for Kd: Ka (modified Stern–Volmer binding constant)
T1 construct: three analogous domains (I, II, and III) having amino acid residues of 1–195, 196–383, and 384–585
Method: The steady-state fluorescence spectra were measured in the 290–450 nm range, at 296, 303, and 310 K, with the excitation wavelength at λ = 295 nm. To a 3.0 mL solution containing an appropriate concentration of HSA (1.00 × 10^−5 M), successive aliquots from a stock solution of each mesoionic under study (1.00 × 10^−3 M in DMSO) were added, with final concentrations of 0.17, 0.33, 0.50, 0.66, 0.83, 0.99, 1.15, and 1.32 × 10^−5 M. The addition was done manually by using a micro syringe. The inner filter correction for the observed steady-state fluorescence of HSA:mesoionic compounds was done in order to compensate for the absorption value of 5a–d at the excitation and emission wavelengths (295 and 340 nm, respectively) when applying Equation (1):(1) Fcor=Fobs10^[Aexc+Aem/2] where Fcor and Fobs are the corrected and observed steady-state fluorescence intensity values, respectively, while Aex and Aem represent absorbance values for each ligand at the excitation and emission wavelengths (λ = 295 and 340 nm, respectively).
The binding properties of each ligand toward HSA—Stern–Volmer quenching constant (KSV), bimolecular quenching rate constant (kq), modified Stern–Volmer binding constant (Ka), enthalpy change (ΔH°), entropy change (ΔS°), and Gibbs’ free energy change (ΔG°)—were calculated from the steady-state fluorescence quenching data according to Equations (2)–(5):(2) F0/F=1+kqτ0[Q]=1+KSV[Q] (3) F0/F0−F=1/f[Q]Ka+1/f (4) lnKa=−ΔH^0/RT+ΔS^0/R (5) ΔG^0=ΔH^0−TΔS^0 where F0 and F are the steady-state fluorescence intensities of HSA in the absence and presence of mesoionics, respectively. [Q] and τ0 are the ligand concentration and fluorescence lifetime, respectively, of the fluorophore in the absence of quencher (5.54 × 10^−9 s—experimental data, see Section 2.3.1). T, ƒ, and R are the temperature (296, 303, and 310 K), fraction of the initial fluorescence intensity that corresponds to fluorophore that is accessible to the quencher (f ≈ 1.0), and gas constant (8.3145 J/mol.K), respectively.

[2] = target: T1, human serum albumin (HSA); test: Circular dichroism of HSA (secondary structure); assay type: binding; details: CD, 310 K, 1.32 × 10^−5 M compound
Method: The CD spectra were recorded in the 200–250 nm range at 310 K for free serum albumin (1.00 × 10^−6 M) and for HSA with the higher concentration of each mesoionic used in the steady-state fluorescence studies (1.32 × 10^−5 M). Each spectrum was taken on the average of three scans. The obtained data were further converted into mean residue ellipticity (MRE) according to Equation (6):(6) MRE=θ/(10.n.l.Cp) where θ is the observed ellipticity (mdeg); n is the number of amino acid residues (585 to HSA), l is the length of the optical cuvette (1.0 cm), and Cp is the molar concentration of HSA (1.00 × 10^−6 M). The 5a–d induced helical content perturbation at 208 and 222 nm were calculated using Equation (7):(7) (A) α−helix%(−MRE208−4000)/(33000−4000)×100(B) α−helix%(−MRE222−2340)/(30300)×100 where MRE208 and MRE222 are the significant molar residual ellipticities (deg.cm^2/dmol) at 208 nm and 222 nm, respectively.

[3] = target: T1, human serum albumin (HSA); test: Zeta potential of HSA (surface perturbation); assay type: binding
Method: All zeta potential (ZP) measurements were performed with 10 runs at 298 K and results were reported in terms of ZP ± SD. The ZP was measured for the HSA solution (1.0 × 10^−5 M in PBS solution) without and in the presence of the mesoionic compounds at the maximum concentration used in the steady-state fluorescence experiments (1.32 × 10^−5 M) at room temperature (ca. 298 K).

[4] = system: MT2 cells (HTLV-1-infected cell line); test: MTT cell viability assay, MT2 cells; assay type: cell-based; details: Homo sapiens, 72 h incubation
Method: (§1) The 1 × 10^5 cells/mL were incubated with or without compounds 5a, 5b, 5c, 5d or DMSO (Sigma-Aldrich/Merck, St. Louis, MO, USA) at 37 °C in humidified atmosphere with a 5% CO2. After 72 h, the cellular viability was assessed using 5 mg/mL of 3-(4,5-dimethylthiazol-2-yl)-2,5-diphenyltetrazolium bromide (MTT, Sigma-Aldrich/Merck). Cells were incubated for 3 h, centrifuged, and formazan crystal was dissolved with DMSO. Plates were read on a Paradigma® spectrofluorometer (Molecular Devices, San Jose, CA, USA) at a 490 nm wavelength. Cell death was also evaluated using Propidium Iodide (Biolegend) exclusion after a 24 h culture under the same conditions described above. The fluorescence was examined by FACSCalibus flow cytometry (BD) and 10,000 events were acquired for the experimental data. Analysis was accomplished using Summit V4.0 or FlowJo software (Becton, Dickingson and Company, Santa Barbara, CA, USA).
(§2) Statistical analysis was performed by one-way analysis of variance (ANOVA) and means were compared using a Tukey post-test. The IC50 values were obtained using nonlinear regression. Data were analyzed using GraphPad Prism-5 software (GraphPad software, San Diego, CA, USA), and p ≤ 0.05 was considered statistically significant.

[5] = target: T1, human serum albumin (HSA); test: Time-resolved fluorescence decay of HSA; assay type: binding; details: HSA 1.00 × 10^−5 M with 1.32 × 10^−5 M compound, ca 298 K
Method: The time-resolved fluorescence decay of a 3.0 mL solution of HSA (1.00 × 10^−5 M, in phosphate buffer solution-PBS) was measured in the absence and presence of the maximum concentration of each mesoionic used in the steady-state fluorescence studies (1.32 × 10^−5 M) at room temperature (ca 298 K).

Jurkat cells [6] = test: Necrosis by propidium iodide labeling (flow cytometry), Jurkat cells; assay type: cell-based, human; details: 25 µM, 24 h, PI labeling
Method: as §1

MT2 cells = test: Necrosis by propidium iodide labeling (flow cytometry), MT2 cells; assay type: cell-based; details: 25 µM, 24 h, PI labeling
Method: as §1

C91/PL cells = test: Necrosis by propidium iodide labeling (flow cytometry), C91/PL cells; assay type: cell-based; details: 25 µM, 24 h, PI labeling
Method: as §1

[7] = system: C91/PL cells (HTLV-1-infected); test: MTT cell viability assay, C91/PL cells; assay type: cell-based; details: 72 h incubation
Method: as §1, §2

Jurkat cells [8] = test: MTT cell viability assay, Jurkat cells; assay type: cell-based; details: Homo sapiens, 72 h incubation
Method: as §1, §2

salmon DNA = test: DNA interaction assay (fluorescence emission); assay type: binding; details: 25 µM compound, DNA 2, 10 and 100 ng/mL
Method: Fluorescence emission spectroscopic titration experiments of DNA were conducted in the absence and presence of a constant concentration of the mesoionic compounds 5a–d. […] After that, the fluorescence emission was recorded after 1 h of DNA incubation with or without compounds 5a–d (25 µM) or DMSO, over a wavelength range of 300 to 600 nm in a Tris-acetate-EDTA buffer (Promega) at room temperature. The slit widths for excitation and emission were set to 5.0 nm. The fluorescence was examined using a F4500 fluorometer (Hitachi, New Jersey, NJ, USA).

[9] = system: adult T-cell leukemia/lymphoma (ATLL); set-up: method as in PMID 25733162; details: in combination with multi-agent chemotherapy, improved from 33%; cited from earlier work

T1 sequence (P02768 25-609): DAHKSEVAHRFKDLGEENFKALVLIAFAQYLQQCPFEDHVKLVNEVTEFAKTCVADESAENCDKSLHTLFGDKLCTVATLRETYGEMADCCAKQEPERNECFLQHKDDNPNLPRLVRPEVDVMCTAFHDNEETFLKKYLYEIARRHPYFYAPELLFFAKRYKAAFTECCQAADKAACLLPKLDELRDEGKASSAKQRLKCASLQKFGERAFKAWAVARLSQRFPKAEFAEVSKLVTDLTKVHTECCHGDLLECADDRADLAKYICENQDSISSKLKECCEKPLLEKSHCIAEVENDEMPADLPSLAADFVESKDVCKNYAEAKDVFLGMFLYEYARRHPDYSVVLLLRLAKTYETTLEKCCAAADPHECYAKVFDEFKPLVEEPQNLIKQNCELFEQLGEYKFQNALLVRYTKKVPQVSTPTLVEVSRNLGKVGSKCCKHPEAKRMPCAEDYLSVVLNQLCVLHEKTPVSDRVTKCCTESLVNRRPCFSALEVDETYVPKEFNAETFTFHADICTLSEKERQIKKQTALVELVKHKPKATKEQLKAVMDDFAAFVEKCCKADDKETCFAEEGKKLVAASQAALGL

With `COc1ccc(Nc2n[n+](-c3ccccc3)c(/C=C/c3ccccc3)s2)cc1.[Cl-]` [5b, (E)-3-Phenyl-5-(4′-methoxyphenylamino)-2-styryl-1,3,4-thiadiazol-3-ium chloride] the “KSV (Stern–Volmer quenching constant)” value ([1]; 296 K) was 1.10 ± 0.02 × 10^5 M^−1, the “kq (bimolecular quenching rate constant)” value ([1]; 296 K) was 1.99e+13 M⁻¹ s⁻¹ and the “ΔG°” value ([1]; 296 K) was -6.69 kcal/mol. For the same molecule, the “KSV (Stern–Volmer quenching constant)” value ([1]; 303 K) was 1.14 ± 0.03 × 10^5 M^−1, the “kq (bimolecular quenching rate constant)” value ([1]; 303 K) was 2.06e+13 M⁻¹ s⁻¹ and the “ΔG°” value ([1]; 303 K) was -6.84 kcal/mol. The “KSV (Stern–Volmer quenching constant)” value ([1]; 310 K) was 1.15 ± 0.03 × 10^5 M^−1, the “kq (bimolecular quenching rate constant)” value ([1]; 310 K) was 2.07e+13 M⁻¹ s⁻¹ and the “ΔG°” value ([1]; 310 K) was -6.98 kcal/mol. It also gave a Kd ([1]; 296 K) of 11.7 µM, a Kd ([1]; 303 K) of 11.8 µM and a Kd ([1]; 310 K) of 12.1 µM. For the same molecule, the “ΔS°” value ([1]; van't Hoff, 296–310 K) was 8.81 ± 0.06 × 10^−2 kJ.mol^−1K^−1, the “α-helix % of HSA at 222 nm” value ([2]; HSA alone 80.1%) was 77.3% and the “α-helix % of HSA at 208 nm” value ([2]; HSA alone 86.7%) was 82.4%. For the same molecule, the “ζ (zeta potential of HSA)” value ([3]; HSA with 1.32 × 10^−5 M compound, HSA alone −9.15 ± 1.79) was −8.55 ± 1.46 mV, the Conductance ([3]; ZP measurement, HSA with compound) was 29,642 µs and the IC50 [4] was 5.09 µM. For the same molecule, the “Relative % of τ1” value [5] was 23.9%, the “Relative % of τ2” value [5] was 76.1% and the “τ1 (HSA fluorescence lifetime)” value [5] was 1.66 ± 0.12 ns. For the same molecule, the “τ2 (HSA fluorescence lifetime)” value [5] was 5.25 ± 0.11 ns, the necrotic cells (Jurkat cells [6]) was 75.37 ± 3.63% and the necrotic cells (MT2 cells) was 35.34 ± 7.80%. The necrotic cells (C91/PL cells) was 33.75 ± 1.65%, the IC50 [7] was 4.5 µM and the IC50 (Jurkat cells [8]) was 1.74 µM. The “interaction with DNA strands” value (salmon DNA) was “can interact with the DNA strands; also recorded: could interact with DNA strands”.

B1: Mogamulizumab: anti-CCR4 monoclonal antibody (antibody, chains of the INN, looked up, V domains shown)
VH: EVQLVESGGDLVQPGRSLRLSCAASGFIFSNYGMSWVRQAPGKGLEWVATISSASTYSYYPDSVKGRFTISRDNAKNSLYLQMNSLRVEDTALYYCGRHSDGNFAFGYWGQGTLVTVSS
VL: DVLMTQSPLSLPVTPGEPASISCRSSRNIVHINGDTYLEWYLQKPGQSPQLLIYKVSNRFSGVPDRFSGSGSGTDFTLKISRVEAEDVGVYYCFQGSLLPWTFGQGTKVEIK
For B1, the therapy response [9] is listed as 52%.
